Literature values in patent publication US20160038452A1, “Methods for Administering a Depot of Disulfiram” (priority 2014, published 2016).

Columns and labels:
[1] = deep intramuscular injection, compared with patients on oral disulfiram

CCN(CC)C(=S)SSC(=S)N(CC)CC [disulfiram]
urinary levels of disulfiram metabolites [1]: insignificant | half-life of disulfiram in blood: 4 min
